From patent publication US5310667A (priority 1989, dated 1994)

Test system: E. coli JM101 culture #215 (pMON8186)
Experiment: Growth curve analysis in liquid MOPS medium with glyphosate
Assay type: cell-based
Conditions: MOPS medium containing 10 mM glyphosate, 37° C.
Procedure: This growth curve analysis functioned as a tertiary screen and was performed in the following way:
Glyphosate resistant colonies were picked off the selection plates and inoculated individually into precultures containing 1 ml of MOPS medium and 50 μg/ml carbenicillin. The precultures were then grown to saturation by shaking the cultures overnight at 37° C. The next morning the density of each culture was determined by withdrawing a 100 μl aliquot from each and diluting it 10 fold with the addition of 900 μl MOPS medium, then reading the optical density at a wavelength of 660 nm in a spectrophotometer. The saturated precultures were then diluted to 1% by adding 50 μl from each saturated preculture to 5 ml of MOPS media containing 0, 5 or 10 mM glyphosate. The diluted precultures were grown in glass culture tubes fitted with stainless steel closures, rotating on a wheel at 37° C. The glass culture tubes were designed for direct reading in a Klett-Summerson photoelectric colorimeter, which was used to monitor the growth of the bacterial cultures at approximately 3 hour intervals.

## O=C(O)CNCP(=O)(O)O [glyphosate, N-phosphonomethylglycine]
  time of growth to saturation: ≤ 11 h
